Our source for the IC50 values is patent US11111242B2, “Pyrrolo[2,3-d]pyrimidinyl, pyrrolo[2,3-b]pyrazinyl and pyrrolo[2,3-d]pyridinyl acrylamides” (Pfizer Inc., priority 2013, dated 2021).

One may read the IC50 as the concentration at which inhibition is half-maximal.

Structures are written as SMILES. Where two headings read alike, the source gives them in different places.

Assay [1] concerns IL-15 induced STAT5 phosphorylation in Human Whole Blood (total lymphocytes). As to the kind of experiment: HWB IL-15 Induced STAT5 Phosphorylation Assay. To be noted: Lymphocyte, IL-15 stimulated, read-out: HWB-IL15-pSTAT5 IC50. Type of assay: cell-based. As to the method: HWB IL-15 Induced STAT5 Phosphorylation Assay
After mixing and incubating for 45 minutes at 37° C., 5 μl D-PBS (unstimulated control) or 20× stocks of 5 μl human IL-15 (final concentration is 50 ng/ml) were added, and mixed three times. After incubating 15 minutes at 37° C., 1× Lyse/Fix Buffer (BD Phosflow 5× Lyse/Fix Buffer) was added to all wells at 1000 μl/well, then incubated for 20 minutes at 37° C. and spun 5 mins at 1200 rpm. […] Following incubating at 4° C. over night, all the samples were transferred to 96-well polypropylene U-bottom plate, and checked by flow cytometry gated on total lymphocytes.

Assay [2] has as its system IL-15 induced P-STAT5 in human PBMC (total lymphocytes). As to the kind of experiment: PBMC IL-15 Induced P-STAT5. To be noted: IL-15 stimulated, read-out: PBMC IL15-pSTAT5 IC50. Type of assay: cell-based. As for the experimental part:
PBMC IL-15 Induced P-STAT5
Frozen human PBMC (200-250 million cells/vial) was thawed at 37° C. The cells were transferred to 10 mL warm medium in a 50-mL conical tube, and centrifuged at 1,200 RPM at room temperature for 5 min. The supernatant was aspirated. […] After adding 47 ml D-PBS (37° C.) to PBMC/FBS suspension, centrifuging at 1,200 RPM at room temperature for 5 min, and aspirating the supernatant, the cells were resuspended in 20 mL warm RPMI medium. Ninety μL of cell suspension were pipetted per well in a 96-well, deep-well, V-bottom plate, and the plate was incubated at 37° C. for 30 min. […] After adding 0.8 mL staining buffer per well, the plates were centrifuged at 1,200 RPM (Beckman GS-6R or Sorvall Legend) at room temperature for 5 min, and again the supernatant was aspirated using a 8-channel or 12-channel manifold. The plate was vortexed, and 0.35 mL 90% methanol/10% H2O (−20° C.) was added per well, and the plate incubated on ice for 20 min. After again adding 0.8 mL staining buffer per well, the plates were centrifuged at 1,200 RPM (Beckman GS-6R or Sorvall Legend) at room temperature for 5 min, and again the supernatant was aspirated using a 8-channel or 12-channel manifold, and then 0.8 mL Staining buffer was added per well. After once again adding 0.8 mL staining buffer per well, the plates were centrifuged at 1,200 RPM (Beckman GS-6R or Sorvall Legend) at room temperature for 5 min, and again the supernatant was aspirated using a 8-channel or 12-channel manifold. […] Samples of 250 μL/well were transferred to a 96-well U-bottom plate, and the FACS analysis was performed gating on total lymphocytes. Samples were analyzed using a BD Calibur™ or BD FACSCanto™ flow cytometer equipped with the BD High Throughput Sampler.

On to `C=CC(=O)N1C[C@@H](C)C[C@@H](Nc2ncnc3[nH]ccc23)C1` (racemic) [Example 22, rac-cis-1-((3R,5S)-3-((7H-Pyrrolo[2,3-d]pyrimidin-4-yl)amino)-5-methylpiperidin-1-yl)prop-2-en-1-one], for which the IC50 in assay [1] stood at 0.712 µM; in assay [2], 0.216 µM.

As to `C=CC(=O)N1CC[C@H](C)[C@@H](Nc2ncnc3[nH]ccc23)C1` (racemic) [Example 50, 1-[(3R,4S)-4-methyl-3-(7H-pyrrolo[2,3-d]pyrimidin-4-ylamino)piperidin-1-yl]prop-2-en-1-one], the IC50 in assay [1] amounted to 0.926 µM; in assay [2] (Homo sapiens, PBMC) it was 0.202 µM.

Take `C=CC(=O)N1C[C@H](Nc2ncnc3[nH]ccc23)CC[C@@H]1C` (racemic) [Example 129, rac-1-[(2S,5R)-2-Methyl-5-(7H-pyrrolo[2,3-d]pyrimidin-4-ylamino)piperidin-1-yl]prop-2-en-1-one]: the IC50 was determined as 0.797 µM in assay [1] and 0.114 µM in assay [2].

Take `C=CC(=O)N1CC[C@@H]2CCN(c3ncnc4[nH]ccc34)[C@@H]2C1` (single isomer, unassigned) [Example 8]: the IC50 in assay [1] was 0.399 µM.

Take `C=CC(=O)N1C[C@H](Nc2ncnc3[nH]ccc23)CC[C@@H]1CC` (single isomer, unassigned) [Example 9]: the half-inhibitory concentration (IC50) in assay [1] came out at 0.578 µM; in assay [2] (Homo sapiens, PBMC), 0.0355 µM.

Turning to `C=CC(=O)N1C[C@@H](C)C[C@@H](Nc2ncnc3[nH]ccc23)C1` (single isomer, unassigned) [Example 14], the IC50 turned out to be 0.538 µM in assay [1] and 0.114 µM in assay [2].

For `C=CC(=O)N1C[C@H](Nc2ncnc3[nH]ccc23)CCC1(C)C` (single isomer, unassigned) [Example 61], the IC50 in assay [1] was found to be 1.87 µM; in assay [2] (Homo sapiens, PBMC), 1.03 µM.

Turning to `C=CC(=O)N1CCC[C@@H](Nc2ncnc3[nH]cc(Cl)c23)C1` [Example 3, (R)-1-(3-((5-chloro-7H-pyrrolo[2,3-d]pyrimidin-4-yl)amino)piperidin-1-yl)prop-2-en-1-one], the IC50 came to 0.153 µM in assay [1] and 0.0352 µM in assay [2] (Homo sapiens, PBMC).

As to `C=CC(=O)N1CC[C@H](F)[C@@H](Nc2ncnc3[nH]ccc23)C1` [Example 4, 1-((3S,4S)-3-((7H-pyrrolo[2,3-d]pyrimidin-4-yl)amino)-4-fluoropiperidin-1-yl)prop-2-en-1-one], the IC50 was determined as 0.115 µM in assay [1] and 0.0197 µM in assay [2] (Homo sapiens, PBMC).

Consider `C=CC(=O)N1C[C@H](C#N)C[C@@H](Nc2ncnc3[nH]ccc23)C1` [Example 6, (3R,5R)-5-((7H-pyrrolo[2,3-d]pyrimidin-4-yl)amino)-1-acryloylpiperidine-3-carbonitrile], for which the IC50 in assay [1] is 0.871 µM; in assay [2], 0.0458 µM.

`C=CC(=O)N1C[C@H](F)C[C@@H](Nc2ncnc3[nH]ccc23)C1` [Example 10, 1-((3R,5R)-3-((7H-pyrrolo[2,3-d]pyrimidin-4-yl)amino)-5-fluoropiperidin-1-yl)prop-2-en-1-one]: the IC50 amounted to 0.461 µM in assay [1] and 0.133 µM in assay [2] (Homo sapiens, PBMC).

For the compound `C=CC(=O)N1CC[C@H](C)[C@@H](Nc2ncnc3[nH]ccc23)C1` [Example 11, 1-((3R,4S)-3-((7H-pyrrolo[2,3-d]pyrimidin-4-yl)amino)-4-methylpiperidin-1-yl)prop-2-en-1-one], the IC50 came out at 0.363 µM in assay [1] and 0.0979 µM in assay [2] (Homo sapiens, PBMC).

Take `C=CC(=O)N1CCC[C@@H](Nc2ncnc3[nH]ccc23)C1` [Example 12, (R)-1-(3-((7H-Pyrrolo[2,3-d]pyrimidin-4-yl)amino)piperidin-1-yl)prop-2-en-1-one]: the concentration for half-maximal inhibition (IC50) is 0.392 µM in assay [1] and 0.107 µM in assay [2] (Homo sapiens, PBMC).

Turning to `C=CC(=O)N1C[C@H](Nc2ncnc3[nH]cc(CCOC)c23)CC[C@@H]1C` [Example 13, 1-((2S,5R)-5-((5-(2-Methoxyethyl)-7H-pyrrolo[2,3-d]pyrimidin-4-yl)amino)-2-methylpiperidin-1-yl)prop-2-en-1-one], the IC50 in assay [1] is 0.549 µM; in assay [2], 0.114 µM.

Consider `C=CC(=O)N1C[C@@H](F)C[C@@H](Nc2ncnc3[nH]ccc23)C1` [Example 15, 1-((3R,5S)-3-((7H-Pyrrolo[2,3-d]pyrimidin-4-yl)amino)-5-fluoropiperidin-1-yl)prop-2-en-1-one], for which the IC50 in assay [1] was determined as 0.4 µM; in assay [2] (Homo sapiens, PBMC), 0.128 µM.

As to `C=CC(=O)N1CC(Nc2ncnc3[nH]ccc23)CCC1CO` (stereo not shown) [Example 52, 1-[2-(Hydroxymethyl)-5-(7H-pyrrolo[2,3-d]pyrimidin-4-ylamino)piperidin-1-yl]prop-2-en-1-one], in assay [1], the IC50 came out at 0.235 µM.

As for `C=CC(=O)N1CCC(Nc2cnc3[nH]cc(C(=O)N4CCC4)c3n2)CC1` [Example 284, 1-(4-{[7-(azetidin-1-ylcarbonyl)-5H-pyrrolo[2,3-b]pyrazin-2-yl]amino}piperidin-1-yl)prop-2-en-1-one], in assay [2], the concentration for half-maximal inhibition (IC50) came to 2.79 µM.

For the compound `C=CC(=O)N1CCC(Nc2cnc3[nH]cc(C(=O)N4CCCC4)c3n2)CC1` [Example 287, 1-(4-{[7-(pyrrolidin-1-ylcarbonyl)-5H-pyrrolo[2,3-b]pyrazin-2-yl]amino}piperidin-1-yl)prop-2-en-1-one], in assay [2], the IC50 came to 7.37 µM.

As to `C=CC(=O)N1CC[C@@H](Nc2cnc3[nH]cc(C(=O)NC(C)C)c3n2)[C@H](F)C1` [Example 291, 2-{[(3R,4R)-1-acryloyl-3-fluoropiperidin-4-yl]amino}-N-(propan-2-yl)-5H-pyrrolo[2,3-b]pyrazine-7-carboxamide], the IC50 in assay [2] was determined as 0.168 µM.

In the case of `C=CC(=O)N1CCN(c2cnc3[nH]cc(C(=O)NC(C)C)c3n2)C[C@H]1C(C)C` [Example 294, 2-[(3R)-4-acryloyl-3-(propan-2-yl)piperazin-1-yl]-N-(propan-2-yl)-5H-pyrrolo[2,3-b]pyrazine-7-carboxamide], the IC50 in assay [2] was determined as 1 µM.

Regarding `C=CC(=O)N1CCN(c2cnc3[nH]cc(C(=O)NC(C)C)c3n2)[C@@H](C)C1` [Example 297, 2-[(2S)-4-acryloyl-2-methylpiperazin-1-yl]-N-(propan-2-yl)-5H-pyrrolo[2,3-b]pyrazine-7-carboxamide], the IC50 in assay [2] turned out to be 0.752 µM.

`C=CC(=O)N1[C@H](C)CN(c2cnc3[nH]cc(C(=O)NC(C)C)c3n2)C[C@@H]1C` [Example 306, 2-[(3R,5S)-4-acryloyl-3,5-dimethylpiperazin-1-yl]-N-(propan-2-yl)-5H-pyrrolo[2,3-b]pyrazine-7-carboxamide]: the IC50 in assay [2] is 1.09 µM.

Regarding `C=CC(=O)N1CCN(c2cnc3[nH]cc(C(=O)NC(C)C)c3n2)[C@H](C)C1` [Example 307, 2-[(2R)-4-acryloyl-2-methylpiperazin-1-yl]-N-(propan-2-yl)-5H-pyrrolo[2,3-b]pyrazine-7-carboxamide], the IC50 in assay [2] was found to be 0.457 µM.

Regarding `C=CC(=O)N1CC2CCC1CN2c1cnc2[nH]cc(C(=O)NC(C)C)c2n1` (stereo not shown) [Example 308, 2-(5-acryloyl-2,5-diazabicyclo[2.2.2]oct-2-yl)-N-(propan-2-yl)-5H-pyrrolo[2,3-b]pyrazine-7-carboxamide], the IC50 in assay [2] turned out to be 2.24 µM.

Turning to `C=CC(=O)N1CCN(c2cnc3[nH]cc(C(=O)NC(C)C)c3n2)C2(CC2)C1` [Example 313, 2-(7-acryloyl-4,7-diazaspiro[2.5]oct-4-yl)-N-(propan-2-yl)-5H-pyrrolo[2,3-b]pyrazine-7-carboxamide], the IC50 in assay [2] was found to be 0.706 µM.

As for `C=CC(=O)N1CCN(c2cnc3[nH]cc(C(=O)NC(C)C)c3n2)[C@H](CC)C1` [Example 321, 2-[(2R)-4-acryloyl-2-ethylpiperazin-1-yl]-N-(propan-2-yl)-5H-pyrrolo[2,3-b]pyrazine-7-carboxamide], the IC50 in assay [2] was 0.415 µM.

For `C=CC(=O)N1CCN(c2cnc3[nH]cc(C(=O)NC(C)C)c3n2)[C@@H](CC)C1` [Example 325, 2-[(2S)-4-acryloyl-2-ethylpiperazin-1-yl]-N-(propan-2-yl)-5H-pyrrolo[2,3-b]pyrazine-7-carboxamide], in assay [2], the IC50 was found to be 1.56 µM.

For `C=CC(=O)N1C[C@@H](C)N(c2cnc3[nH]cc(C(=O)NC(C)C)c3n2)[C@@H](C)C1` [Example 328, 2-[(2R,6S)-4-acryloyl-2,6-dimethylpiperazin-1-yl]-N-(propan-2-yl)-5H-pyrrolo[2,3-b]pyrazine-7-carboxamide], in assay [2], the IC50 amounted to 0.891 µM.

With `C=CC(=O)N1CCC(Oc2cnc3[nH]cc(C(=O)NC(C)(C)C)c3n2)CC1` [Example 338, 2-((1-Acryloylpiperidin-4-yl)oxy)-N-(tert-butyl)-5H-pyrrolo[2,3-b]pyrazine-7-carboxamide], in assay [2], the IC50 was 0.48 µM.
